System: gray mold fungus (Botrytis cinerea)
Test: cucumber leaf disk test, preventive value against gray mold
Format: in vivo
Conditions: 15° C., four days
Description: True leaf of cucumber is punched out with cork borer to 13 mm in diameter to prepare a leaf disk. In 24 well microwell plate that is dispensed with 1 ml 0.8% water agar, the leaf disk is placed such that the upper side of the leaf is in an upward direction. Thereto is added 20 micro liter a testing solution prepared by mixing a dimethyl sulfoxide solution of the present compound (racemate) and a dimethyl sulfoxide solution of iminoctadine trialbesilate to a predetermined concentration to treat the leaf disk.
After confirming that the testing medical solution is dried, conidium of gray mold fungus (Botrytis cinerea) is suspended into potato dextrose broth (DIFCO) in a density of about 10^5 conidium/mL and is then subjected to a spray inoculation. After leaving to stand the leaf disk in a growth chamber set up at 15° C. for four days, an onset area on the leaf is measured and then calculated an onset area rate (hereinafter, referred to as an onset area rate of treated group).
The same operation is carried out with 20 micro liter water instead of 20 micro liter a testing medicine solution to calculate an onset area rate (hereinafter, referred to an onset area rate of non-treated group).
A preventive value is calculated from the above onset area rate of treated group and the onset area rate of non-treated group by the following equation: Preventive value (%)=100×(A−B)/A
A: an onset area rate of treated group
B: an onset area rate of non-treated group
The same operations as described in Test Example 1 are carried out with iminoctadine triacetate instead of iminoctadine trialbesilate, so as to calculate a preventive value.
Also for comparison, the same operations as described in Test Example 1 are carried out with the exception that the testing medicine solution is substituted with a predetermined concentration of each dimethyl sulfoxide solution of the present compound (racemate) or iminoctadine triacetate, so as to calculate respective preventive values.
For comparison, the same operations as described in Test Example 1 are carried out with the exception that the testing medicine solution is substituted with a predetermined concentration of a dimethyl sulfoxide solution of iminoctadine triacetate, so as to calculate a preventive value.

## CC(=O)O.CC(=O)O.CC(=O)O.NC(N)=NCCCCCCCCNCCCCCCCCN=C(N)N [iminoctadine triacetate]
Table 2, iminoctadine triacetate alone 0.5 ppm
  preventive value (%): 20%
Table 2, iminoctadine triacetate alone 5.0 ppm
  preventive value (%): 53%
Table 3 (Reference Example), iminoctadine triacetate alone 0.5 ppm
  preventive value (%): 20%
Table 3 (Reference Example), iminoctadine triacetate alone 5.0 ppm
  preventive value (%): 56%

From patent US8946298B2, “Plant disease controlling composition and method for controlling plant disease” (Sumitomo Chemical Company, Limited, priority 2010, dated 2015)
